Laboratory results from PMC10761119, “Phosphorylation-state dependent intraneuronal sorting of Aβ differentially impairs autophagy and the endo-lysosomal system” (Autophagy, 2023).

Assays:
SH-SY5Y cells [1] = test: Number and perinuclear/peripheral positioning of LAMP2-positive compartments; format: cell-based, human; conditions: Aβ 1 µM, 24 h
Method: Cells were cultured on glass coverslips and treated similarly as mentioned above. After treatment, cells were subsequently washed and fixed with 4% paraformaldehyde in PBS for 15 min. Cells were then permeabilized with 0.25% Triton X-100 in PBS for 1 min, followed by blocking with 2.5% BSA, 0.125% Triton X-100 in PBS. Incubation with primary antibodies (respective dilutions in blocking buffer) was performed overnight at 4°C. Next day, coverslips were washed and incubated with respective secondary antibodies (respective dilutions in blocking buffer) for 1 h at RT. Removal of the secondary antibody solution was followed by washes with PBS (thrice) and distilled water (once) and coverslips were mounted on the slides using ImmuMount (ThermoFisher Scientific – Shandon Epredia™, 9990412). For surface staining without permeabilization, Triton X-100 was not used in any solution during the staining procedure.
All images were processed and analyzed using Fiji ImageJ software. Mander’s overlap coefficient (Figure 1B–D; Figure 2B–F; Figure 4B–F; Figure 6E; S2B, D; S4B, D; S6D, F) analysis was done using the colocalization processing module of the Fiji ImageJ plugin. Distance from the plaque core (Figure 1B) was measured using the concentric circles plugin module. Fluorescence intensity of the green channel (Figure S3A-B), and the number of neurons positive for Aβ signals (Figure S3-D) were quantified using the processing module of Keyence software. […] Intensity of green and red channel for a particular ROI was calculated and ratios of the individual values were computed (Figure 6B and S7A). For computing the number of mCherry^+GFP^± vesicles or per cell (Figure 6D and S7B), cell outline was drawn manually and number of vesicles per cell (nucleus count – DAPI) was calculated. […] Due to slight variability in transfection efficiency or the number of cells in different experimental set-ups, the readings from each experiment were averaged and normalized to the control cells from that particular set. […]

SH-SY5Y cells [2] = test: Autophagic flux with tandem reporter mCherry-GFP-LC3B; format: cell-based, human; conditions: Aβ 1 µM, 24 h, n = 8, N = 4; for Mander's overlap coefficient, R, of Aβ with GFP-positive vesicles / Mander's overlap coefficient, R, of Aβ with mCherry-positive vesicles: mean ± S.D.
Method: SH-SY5Y cells were transfected with either GFP-LC3-LC3Δ-RFP or mCherry-GFP-LC3B tandem constructs (0.5 μg/well +1 µl transfection reagent − 24 well plate) with Lipofectamine 2000 (Life Technologies, 11668019) in OptiMEM (Life Technologies, 11058021) in DMEM/F-12, FCS^− PS^− media. After 8 h, FCS^− PS^− media was changed to normal culture media, respectively. Transfection efficiency was around 50–60% in all analyzed coverslips.
SH-SY5Y cells seeded on D1, were treated with Aβ variants (1 μM) on D3 in DMEM/F-12 media without serum and antibiotics. Control treatment included treatment with equal volume of 10 mM NaOH solution used for preparing the Aβ stock solutions, in respective cell culture medium. SH-SY5Y cells, after 16 h of transient expression of the reporter constructs, were treated with different Aβ variants, autophagy modulator substrates and respective controls in DMEM/F-12, FCS^− PS^− media for the mentioned time points. After treatment, cells were washed twice with PBS and with 0.025% trypsin-EDTA in PBS to get rid of cell bound Aβ, followed by subsequent washings with PBS again. Cells were either collected by scraping using a cell-scraper or fixed with 4% PFA-PBS for 15 min at RT, for further immunocytochemistry experiments. Collected treatment media was centrifuged at 1000 g for 5 min, pellet discarded and supernatant frozen at −20°C until further usage.
All images were processed and analyzed using Fiji ImageJ software. Mander’s overlap coefficient (Figure 1B–D; Figure 2B–F; Figure 4B–F; Figure 6E; S2B, D; S4B, D; S6D, F) analysis was done using the colocalization processing module of the Fiji ImageJ plugin. Distance from the plaque core (Figure 1B) was measured using the concentric circles plugin module. Fluorescence intensity of the green channel (Figure S3A-B), and the number of neurons positive for Aβ signals (Figure S3-D) were quantified using the processing module of Keyence software. Intensity analysis (Figure S4E-I) was performed by manually selecting the region of interest (ROI) and measuring the intensity of the individual channels in the selected area. RFP/GFP (Figure 6A) and LysoSensor Green/Blue (Figure 7A) ratiometric images were created by using the image calculator module. Intensity of green and red channel for a particular ROI was calculated and ratios of the individual values were computed (Figure 6B and S7A). For computing the number of mCherry^+GFP^± vesicles or per cell (Figure 6D and S7B), cell outline was drawn manually and number of vesicles per cell (nucleus count – DAPI) was calculated. Similarly, the number of perinuclear and peripheral LAMP2-positive lysosomes or percentage of LAMP2 compartments containing Aβ was computed using the concentric circle processing module (Figure 7D). Due to slight variability in transfection efficiency or the number of cells in different experimental set-ups, the readings from each experiment were averaged and normalized to the control cells from that particular set. Average values from each experiment were normalized to the respective controls in the same set. Values from independent experiments were then computed and values are represented as independent data points.

With “amyloid-β phosphorylated at serine residue 26 [p-Ser26Aβ]” the “Number of LAMP2-positive vesicles” value (SH-SY5Y cells [1]) was “significantly increased”, the “Mander's overlap coefficient, R, of Aβ with GFP-positive vesicles” value (SH-SY5Y cells [2]) was 0.30 ± 0.05 and the “Mander's overlap coefficient, R, of Aβ with mCherry-positive vesicles” value (SH-SY5Y cells [2]) was 0.70 ± 0.05. The “Number of mCherry+ GFP− vesicles per cell” value (SH-SY5Y cells [2]) was “significantly higher number”.
In the case of “non-phosphorylated amyloid-β [npAβ, reference compound]”, the “Number of LAMP2-positive vesicles” value (SH-SY5Y cells [1]) is reported as “significantly increased”, the “Ratio of perinuclear to peripheral lysosomes” value (SH-SY5Y cells [1]; LAMP2-positive compartments, perinuclear <2 µm from nucleus, control 0.61 ± 0.12, n = 12, N = 3) is reported as 0.99 ± 0.16 and the “Ratio of mCherry:GFP fluorescence intensities” value (SH-SY5Y cells [2]; compared to control cells) is reported as “not significantly altered”. The “Mander's overlap coefficient, R, of Aβ with GFP-positive vesicles” value (SH-SY5Y cells [2]) was 0.40 ± 0.05 and the “Mander's overlap coefficient, R, of Aβ with mCherry-positive vesicles” value (SH-SY5Y cells [2]) was 0.61 ± 0.04.
“amyloid-β phosphorylated at serine residue 8 [p-Ser8Aβ]” was tested, and the “Number of mCherry+ GFP+ vesicles per cell” value (SH-SY5Y cells [2]; compared to control and to p-Ser26Aβ treated cells) was “significantly higher”, the “Mander's overlap coefficient, R, of Aβ with GFP-positive vesicles” value (SH-SY5Y cells [2]) was 0.56 ± 0.10 and the “Mander's overlap coefficient, R, of Aβ with mCherry-positive vesicles” value (SH-SY5Y cells [2]) was 0.57 ± 0.06. The “Number of mCherry+ GFP− vesicles per cell” value (SH-SY5Y cells [2]) was “significantly least”.
